Assay results published in US20210293825A1, “METHODS FOR PRECISION THERAPEUTIC TARGETING OF HUMAN CANCER CELL MOTILITY AND KITS THEREOF” (UNITED STATES GOVERNMENT AS REPRESENTED BY THE DEPARTMENT …, priority 2018, published 2021).
Blank lines part the entries; values can stand above or below the molecule they belong to.

Tests used:
[1] = system: human prostate, breast, colon and lung cancer cells; assay: Single cell migration (motility) assay; type: cell-based; conditions: PC3-M cells, 10 μM, three days
Text: FIG. 1a is a schematic flow of probe synthesis and development strategy. […] Values are mean±SEM of a single experiment in replicates of N=4, with similar findings in multiple separate experiments (also N=4). […] Values are mean±SEM of a single experiment in replicates of N=24, with similar findings in a separate experiment (also N=24). *Denotes Student's t test P value <0.05, compared to controls. […] Values are mean±SEM from N>2 separate experiments, each in replicates of N=3. […] Values are the mean±SD number of total, CFU-GM, CFU-GEMM or BFU-E colonies at 14 days after treatment with KBU2046, from a single experiment in replicates of N=2. […] Values are the mean±SD of a single experiment, with similar results seen in a separate experiment, both in replicates of N=2.
Cell Migration Assays. Single cell motility assays were conducted by adding 10^4 cells to 35 mm tissue culture dishes (BD Falcon) coated with collagen I (BD Biosciences), incubating at 37° C. in 5% CO2, performing time-lapse imaging using a Biostation (Nikon Instruments), tracking the path of N≥35 cells using ImageJ software and the Manual Tracker plug-in, and using Chemotaxis and Migration Tool plug-in for data analysis.

[2] = system: array of over 9,000 human proteins; assay: ProtoArray Human Protein Microarray binding assay
Procedure: (§1) PC3-M cells were pre-treated with 10 μM KBU2046 or with KBU2046-biotin for three days, and single cell motility assays conducted. Data are the mean±SEM of a single experiment of N≥24 cells; * denotes Student's 2-sided t-test p-value </=0.05 compared to control. […] PC3-M cells were labeled with 1 μM KBU2046-biotin+/−10 μM free KBU2046, followed by detection with FITC-streptavidin, and visualization by fluorescent microscopy (with equal exposure times). […] KBU2046-biotin was hybridized to ProtoArray® Human Protein Microarray's at 0.5 and 10 μM with and without 10 fold excess free KBU2046.
Protein Microarray Binding Assay. The ProtoArray® assay, using the Human Protein Microarray platform, was performed by Invitrogen.
First, the positive control used in protein arrays was staurosporine.

PC3-M cells [3] = assay: KBU2046-biotin labelling of cells (FITC-streptavidin); type: cell-based, human; conditions: 1 μM KBU2046-biotin +/- 10 μM free KBU2046
Procedure: as §1

recombinant CSRP1 = recombinant CSRP1 (Homo sapiens, UniProt P21291); assay: Pull down of recombinant CSRP1 by KBU2046-biotin; type: binding
recombinant CSRP1, sequence (P21291 whole entry): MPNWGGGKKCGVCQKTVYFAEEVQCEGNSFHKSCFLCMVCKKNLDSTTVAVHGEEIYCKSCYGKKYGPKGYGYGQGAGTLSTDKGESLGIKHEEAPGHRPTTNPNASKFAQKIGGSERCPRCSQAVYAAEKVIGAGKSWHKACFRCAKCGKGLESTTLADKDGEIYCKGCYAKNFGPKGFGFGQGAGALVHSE
Procedure: This yielded 3 proteins, shown in table, for an initial hit rate of 0.03%. Next, free KBU2046 was needed to inhibit binding by >75%. Of the two remaining candidates, isovaleryl-CoA dehydrogenase (ICD) was eliminated. […] Cysteine and glycine-rich protein 1 (CSRP1) was deemed the top protein, though its binding characteristics at 10 μM+free KBU2046 were similar to ICD, albeit not as extreme.

PC3-M cells [4] = assay: Boyden chamber cell invasion assay, PC3-M cells; type: cell-based, human; conditions: 10 μM compound, 3 days
Procedure: Following the synthetic strategy outlined in FIG. 1a, 4′,5,7-trihydroxyisoflavone was used as the chemical scaffold. […] Note, demethylation within the cell cannot be predicted. Therefore, the loss of function was considered to be informative for methylated compounds. […] This adds further evidence of the importance of the C4′-hydroxyl for activity. […] For cell invasion, PC3-M cells were treated with 10 μM compound for a total of 3 days, and cell invasion assays were run at the end of the 3 day period, in the presence of compound. Values are the mean±SEM of three separate experiments, each run in replicates of N=3. […] Values are the mean±SEM of a single experiment, in replicates of N=4, repeated at least once (also N=4). […] The initial structure-activity relationship (SAR) data informed the second round of compound synthesis. […] Compared to 4′,5,7-trihydroxyisoflavone, KBU2046 is non-planar, lacks hydroxyl groups, and particularly those that mediate ER binding, is halogen-substituted, and has a distinctly different biological profile. These characteristics place KBU2046 in a chemically distinct class, compared to the starting compound.
Cell Invasion Assays. Boyden chamber cell invasion assays were performed as previously described^9, using either denatured collagen (BD Biosciences) or type IV human collagen (BD Biosciences), with the experiments repeated, each in N=4 replicates. In some experiments, as indicated, cells were transfected with an expression plasmid, using Lipofectamine 2000™ (Invitrogen), or with siRNA, using DharmaFect Duo (Thermo Scientific) and co-transfected with β-Galactosidase (Plasmid pCMV⋅SPORT-βgal; Life Technology).
The initial round of synthesis was designed to examine the removal of individual chemical fragments. In this manner, the importance of these functional groups in mediating efficacy (inhibition of cell invasion) could be determined. […] Initial assays were performed with PC3 and PC3-M cells. However, as these studies yielded similar findings, subsequent screening assays utilized only PC3-M cells. In designing chemical synthetic routes, priority was given to efficacy and toxicity parameters. […] These additional design features included removal of fragments that mediated genistein binding to the estrogen receptor (ER), as determined by ER-genistein 3D x-ray crystal structures (Protein Data Base IDs: 1X7R and 1X7J, for crystal structures of ERα and ERβ with bound genistein, respectively). These features also included removal of chemical fragments that are considered to increase susceptibility to rapid metabolism, for example by the cytochrome P450 (CYP) pathway. The final feature involved incorporation of chemical characteristics previously shown to be associated with effective drugs and which together generally impart more favorable pharmacologic properties, including those described by Lipinski et al. (Lipinski, C. A. et al., Adv Drug Deliv Rev 46, 3-26 (2001)).

[5] = system: protein phosphorylation in PC3-M and PC3 cells; assay: KinomeView phospho-motif antibody screen; type: cell-based, human; conditions: 10 μM, 3 days, ±TGFβ
Text: Seeking to identify KBU2046's biological target(s), alternative methods were pursued. The KinomeView® panel of antibodies (Cell Signaling Technology, Inc.) detect established protein phosphorylation motifs, and were used to probe for KBU2046-induced changes in protein phosphorylation (FIG. 4a and FIG. 17). Phosphoprotein changes that met the following criteria were prioritized: were induced in cells in vitro as well as in tumors of treated mice (from FIG. 2a), that counteracted transforming growth factor β (TGFβ)-induced effects, and that were reproducible. TGFβ is ubiquitous in vivo, is known to increase PCa cell invasion (Huang, X. et al., Cancer Research 65, 3470-8 (2005)), and KBU2046's anti-invasion efficacy remains in spite of TGFβ-stimulated increases in cell invasion (FIG. 18). Genistein was evaluated under identical treatment conditions for comparison. […] In tumors of treated animals KBU2046 had this same effect on this 83 kDa protein band (green arrow in FIG. 17a). The high molecular selectivity of KBU2046 was further supported by its failure to inhibit over 400 different protein kinases and 20 phosphatases examined, in three different in vitro assay systems (see, Example 1).
Phospho-proteomic Analysis. The Kinoview™ and PhosphoScan™ assays were performed by Cell Signaling Technology Inc. […]

[6] = system: human prostate cells (PC3, PC3-M, 1532NPTX, 1542NPTX, 1532CPTX, 1542CPTX); conditions: nanomolar concentrations; cited from earlier work
[7] = system: human PCa PC3-M cell orthotopic implants; conditions: murine orthotopic model; cited from earlier work
MKK4 = target: T1, MKK4 (Homo sapiens, UniProt P45985, S257E/T261E); conditions: low nanomolar concentrations; cited from earlier work
T1 sequence (P45985 37-399 S257E/T261E): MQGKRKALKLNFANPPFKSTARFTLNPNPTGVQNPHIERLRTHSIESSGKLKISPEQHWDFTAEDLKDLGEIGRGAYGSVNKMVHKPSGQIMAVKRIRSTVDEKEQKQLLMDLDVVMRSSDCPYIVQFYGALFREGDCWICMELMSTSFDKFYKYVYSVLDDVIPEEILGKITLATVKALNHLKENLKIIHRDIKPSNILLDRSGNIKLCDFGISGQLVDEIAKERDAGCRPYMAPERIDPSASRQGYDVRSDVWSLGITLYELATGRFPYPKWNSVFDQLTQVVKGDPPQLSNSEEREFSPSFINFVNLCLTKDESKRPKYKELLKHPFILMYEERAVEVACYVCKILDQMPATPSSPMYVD

[8] = system: phosphorylation of p38 MAPK or of HSP27; conditions: cited from earlier work
[9] = system: matrix metalloproteinase 2 (MMP-2) expression; conditions: prospective human trial; cited from earlier work

binding to HSP90β and CDC37 on the protein arrays [2]: not bound
binding to protein arrays [2]: lack of binding
initial hit rate ([2]; 0.5 and 10 μM): 0.03%
number of proteins meeting binding criteria ([2]; 0.5 and 10 μM, absence of free KBU2046): 3
pull down of recombinant CSRP1 (recombinant CSRP1): no evidence of such was observed
Structure (SMILES): O=C(CCCC[C@@H]1SC[C@@H]2NC(=O)N[C@@H]21)NCCOCCOCCOCCOc1ccc2c(c1)OCC(c1ccc(F)cc1)C2=O (stereo partly drawn) [KBU2046-biotin]
single cell motility [1]: biologically active
labelling of cells (PC3-M cells [3]): labels permeablized cells in a manner that can be competed off

Structure (SMILES): O=c1c(-c2ccc(O)cc2)coc2cc(O)cc(O)c12 [genistein, 4′,5,7-trihydroxyisoflavone]
effect on cell invasion (PC3-M cells [4]): had anti-invasion efficacy
changes in protein phosphorylation [5]: induced widespread changes in protein phosphorylation
inhibition of human PCa cell invasion in vitro [6]: inhibit human prostate cancer (PCa) cell invasion in vitro
inhibition of metastasis [7]: inhibit
inhibition of MKK4 kinase activity (MKK4): inhibited the kinase activity
downstream phosphorylation of p38 MAPK and HSP27 [8]: inhibiting downstream phosphorylation of p38 MAPK
MMP-2 expression in prostate tissue [9]: downregulates matrix metalloproteinase 2 (MMP-2) expression in prostate tissue

Structure (SMILES): CN[C@@H]1C[C@H]2O[C@@](C)([C@@H]1OC)n1c3ccccc3c3c4c(c5c6ccccc6n2c5c31)C(=O)NC4 [staurosporine, reference compound]
number of proteins bound at levels >/=10 fold above background ([2]; positive control): 214
